Holding throughout (assay type): in vivo
In test [1] the test system is cucumber gray mold fungus Botrytis cinerea. The experiment in a line: Test for control efficacy against cucumber gray mold. The following applies: alone, from diameter of lesion area. As for the experimental part: Test for Control Efficacy Against Cucumber Gray Mold
The agrochemical formulations diluted to predetermined concentrations were applied to the foliage of cucumber plants (variety: Suuyou) at the one-leaf stage grown in individual pots. The application rate was 50 mL per pot. On the day following the application, 6-mm-diameter paper disks were impregnated with a spore suspension of the cucumber gray mold fungus Botrytis cinerea cultured on PSA medium, and inoculated onto cucumber true leaves. The pots were kept at a temperature of 20° C. and a humidity of 100%. At 6 days after the inoculation, the control value was determined by the equation 4 shown below.
Control value (%)=(diameter of lesion area in non-treatment plot−diameter of lesion area in treatment plot)×100/diameter of lesion area in non-treatment plot [Math. 4]

The test system of test [2] is rice blast fungus Pyricularia oryzae. The following applies: alone.
In test [3] the test system is wheat speckled leaf blotch fungus Septoria tritici. The experiment in a line: Test for wheat speckled leaf blotch (Septoria tritici). The following applies: alone. As for the experimental part: Test for Wheat Speckled Leaf Blotch (Septoria tritici)
The agrochemical formulations diluted to predetermined concentrations were applied to wheat plants at a predetermined amount with a spray gun. After air-drying, the wheat plants were spray-inoculated with a spore suspension of the wheat speckled leaf blotch fungus Septoria tritici (1.0×10^7 spores/mL). After that, the wheat pots were kept in a greenhouse under light conditions at 15° C. and 100% RH to induce the development of the disease. At 17 days after the inoculation, the disease area percentage was indexed on a scale of 0 to 10 to evaluate the control efficacy. The control value is expressed in percentage (%) as shown below or in index form as in Example 1.
Disease Severity Index Scale
0: No manifestation of disease
1: Lesion area percentage is 1 to 10%.
2: Lesion area percentage is 11 to 20%.
3: Lesion area percentage is 21 to 30%.
4: Lesion area percentage is 31 to 40%.
5: Lesion area percentage is 41 to 50%.
6: Lesion area percentage is 51 to 60%.
7: Lesion area percentage is 61 to 70%.
8: Lesion area percentage is 71 to 80%.
9: Lesion area percentage is 81 to 90%.
10: Lesion area percentage is 91 to 100%.
Control value (%)=(disease severity index in non-treatment plot−disease severity index in treatment plot)×100/disease severity index in non-treatment plot [Math. 3]

The subject of test [4] is cucumber anthracnose fungus Colletotrichum orbiculare. The following applies: alone, rating scale of Test Example 1.
The test system of test [5] is leaf rust fungus Puccinia recondita. Kind of test: Test for control efficacy against wheat leaf rust. The following applies: alone, scale of 0 to 10. As to the method: Test for Control Efficacy Against Wheat Leaf Rust
The agrochemical formulations diluted to predetermined concentrations were applied to wheat plants at a predetermined amount with a spray gun. After air-drying, the wheat plants were spray-inoculated with a spore suspension of the leaf rust fungus Puccinia recondita (1.0×10^7 spores/mL). After that, the wheat pots were kept in a greenhouse under light conditions at 15° C. and 100% RH to induce the development of the disease. At 7 days after the inoculation, the disease area percentage was indexed on a scale of 0 to 10 to evaluate the control efficacy.

Test [6] has as its system Laodelphax striatellus. The experiment in a line: Test for control efficacy against Laodelphax striatellus. The following applies: alone, 30 days after the agrochemical treatment. The source says: Test for Control Efficacy Test Against Laodelphax striatellus
Adults of the test insect were released onto rice plants (variety: Kinmaze, 95 days after transplantation) grown in individual 2-L pots (8 females and 5 males per pot). At 11 days after the insect release (when hatched larvae were observed), mixed formulations of compound [1-7] and other agrochemicals and each individual agrochemical (prescribed effective doses) were separately applied. After air-drying and at 10 days after the agrochemical treatment, adults of the test insect were additionally released onto the rice plants (8 females and 5 males per pot). At 30 days after the agrochemical treatment, the number of survivors was measured, and the control value was calculated by equation 6. In addition, the expected value E for the mixed use was calculated by Colby's equation as described in Test Example 1. When the actual control efficacy of combined treatment with two different agrochemicals is greater than the expected value E, the combination can be regarded as having synergistic effect.
Control value (%)=(1−number of survivors/number of survivors in control plot)×100 [Math. 6]
Assuming that the control value for “no grade” is 49%, when the control values of the two different agrochemicals are both 49%, the expected value E calculated by Colby's equation is as follows: E=(49+49)−(49×49/100)=73.99. The control value of 73.99 corresponds to grade C. Therefore, when both the agrochemicals are graded as no grade, the expected value is C.

Test [7] concerns tomato late blight fungus Phytophthora infestans. The following applies: alone, rating scale of Test Example 2.

The structures appear in SMILES notation. Like-named read-outs stand apart in the source and are kept apart here.

For `Fc1ccc([C@]2(Cn3cncn3)O[C@H]2c2ccccc2Cl)cc1` (racemic) [Epoxiconazole 8EC, epoxiconazole], the Control value in test [1] (67 ppm) came to 55%; in test [1] (200 ppm) it was 100%; in test [2] (0.5 ppm, ten-point scale) it was 0.0; in test [2] (2 ppm, ten-point scale), 3.0; in test [2] (8 ppm, ten-point scale) it was 10; in test [4] (0.5 ppm), 0.0. Also, the Control value in test [4] (2 ppm) worked out at 0.0; in test [5] (0.5 ppm), 7.0; in test [5] (2 ppm), 10.0. In addition, the “Control value (%)” value in test [3] (0.4 ppm, Compound [1-5] series) is 0%; in test [3] (1.1 ppm, Compound [1-5] series), 0%; in test [3] (2 ppm, Compound [1-7] series), 0.0%; in test [3] (3.3 ppm, Compound [1-5] series), 16%; in test [3] (8 ppm, Compound [1-7] series) it was 6.0%; in test [3] (10 ppm, Compound [1-5] series), 86%.

`CO/C=C(/C(=O)OC)c1ccccc1Oc1cc(Oc2ccccc2C#N)ncn1` [Azoxystrobin 20SC, azoxystrobin]: the Grade entry in test [6] (100 ppm) and in test [6] (500 ppm) was “No grade (less than 50%)” throughout. For the same compound, the Control value in test [7] (0.3 ppm) is reported as 0.0; in test [7] (3 ppm), 2.0; in test [2] (0.3 ppm, ten-point scale), 1.0; in test [2] (3 ppm, ten-point scale) it was 10; in test [4] (0.3 ppm), 2.0; in test [4] (3 ppm), 8.0. Moreover, the Control value in test [5] (0.3 ppm) is 0.0; in test [5] (3 ppm), 9.0.

Regarding `O=C(Nc1ccccc1-c1ccc(Cl)cc1)c1cccnc1Cl` [Boscalid 50WG, boscalid], the Control value in test [1] (2 ppm) came out at 8%; in test [1] (7 ppm), 18%; in test [1] (22 ppm), 20%.

As to `CCC(Nc1ncnc(C)c1Cl)c1ccc(OC(F)F)cc1` (stereo not shown) [Diflumetorim 10EC, diflumetorim], the Control value stood at 8.0 in test [2] (10 ppm, ten-point scale); 2.0 in test [4] (10 ppm); 1.0 in test [5] (10 ppm).

With `CC1(C(=O)Nc2ccc(O)c(Cl)c2Cl)CCCCC1` [Fenhexamid 50SC, fenhexamid], the values for the Control value in test [1] (7 ppm), in test [1] (22 ppm) and in test [1] (200 ppm) were 0%, 0% and 53%, respectively.

`N#Cc1c[nH]cc1-c1cccc2c1OC(F)(F)O2` [Fludioxonil 20SC, fludioxonil]: the Control value in test [1] (7 ppm) was 0%; in test [1] (22 ppm) it was 59%; in test [2] (3 ppm, ten-point scale), 6.0; in test [2] (10 ppm, ten-point scale) it was 9.0; in test [4] (3 ppm) it was 7.0; in test [4] (10 ppm) it was 9.5. In addition, the Control value in test [5] (3 ppm) was found to be 0.0; in test [5] (10 ppm) it was 0.0; in test [5] (200 ppm), 4.0.

In the case of `O=C(NCCc1ncc(C(F)(F)F)cc1Cl)c1ccccc1C(F)(F)F` [Fluopyram 50SC, fluopyram], the Control value in test [2] (regardless of the concentration) is on record as 0; in test [4] (3 ppm), 0.0; in test [4] (10 ppm), 2.0. Moreover, the “Control value (%)” value in test [3] (10 ppm, Compound [1-7] series) came to 0.0%.

`Cn1cc(C(=O)Nc2ccccc2-c2cc(F)c(F)c(F)c2)c(C(F)F)n1` [Fluxapyroxad 6EC, fluxapyroxad]: the Control value in test [7] (1 ppm) is 0.0; in test [2] (0.3 ppm, ten-point scale), 0.0; in test [2] (1 ppm, ten-point scale) it was 0.0; in test [4] (1 ppm), 0.0. Further, the “Control value (%)” value in test [3] (0.07 ppm, Compound [1-5] series) turned out to be 16%; in test [3] (0.22 ppm, Compound [1-5] series), 31%; in test [3] (0.67 ppm, Compound [1-5] series), 65%; in test [3] (1 ppm, Compound [1-7] series), 0.0%; in test [3] (2.0 ppm, Compound [1-5] series) it was 98%; in test [3] (6.0 ppm, Compound [1-5] series) it was 99%.

Turning to `OC(Cc1ccccc1Cl)(Cn1nc[nH]c1=S)C1(Cl)CC1` (stereo not shown) [Prothioconazole 25EC, prothioconazole], the Control value in test [7] (25 ppm) is listed as 0.0; in test [2] (6.25 ppm, ten-point scale), 5.0; in test [2] (25 ppm, ten-point scale) it was 9.0; in test [4] (6.25 ppm), 8.0; in test [4] (25 ppm), 10; in test [5] (6.25 ppm) it was 0.0. Besides, the Control value in test [5] (25 ppm) is 5.0.

Consider `O=C(Nc1ccccc1-c1ccc(F)c(F)c1)c1nccnc1C(F)(F)F` [Pyraziflumid 20SC, pyraziflumid], for which the Control value came to 0.0 in test [7] (2 ppm), 0.0 in test [4] (0.5 ppm), 0.0 in test [4] (2 ppm) and 2.0 in test [5] (2 ppm). For the same compound, the “Control value (%)” value in test [3] (0.2 ppm, Compound [1-5] series) amounted to 1%; in test [3] (0.7 ppm, Compound [1-5] series), 53%; in test [3] (2 ppm, Compound [1-7] series), 6.0%; in test [3] (2.2 ppm, Compound [1-5] series), 92%; in test [3] (6.7 ppm, Compound [1-5] series) it was 99%; in test [3] (20 ppm, Compound [1-5] series), 100%.

For `CC(C)(C)C(O)(CCc1ccc(Cl)cc1)Cn1cncn1` (stereo not shown) [Tebuconazole 25EW, tebuconazole], the Control value in test [7] (1 ppm) amounted to 0.0; in test [2] (0.3 ppm, ten-point scale), 0.0; in test [2] (1 ppm, ten-point scale), 0.0; in test [4] (0.3 ppm), 0.0. For the same compound, in test [3] (1 ppm, Compound [1-7] series), the “Control value (%)” value amounted to 0.0%.

(Values after US20210298299A1 (priority 2018, published 2021).)
